From US20080045595A1, “METHOD OF TREATING CANCER” (Myriad Genetics, Incorporated, priority 2004, published 2008) come the findings set out here.

The test system of series [1] is MCF-7, a human breast cancer cell line. Description: Cytotoxicity (ATPLite cell growth inhibition), Example 1, MCF-7 cells. In kind it is cell-based. The settings on record: MCF7a, 72 hours exposure, ATPLite assay, mean ± standard deviation, read-out: IC50 (concentration that inhibited growth by 50%). As for the experimental part:
(§1) A. MCF-7, a human breast cancer cell line was obtained from ATCC (Catalog number: HTB-22)
(§2) MCF-7 cells were supplemented additionally with 10 μg/ml recombinant human insulin.
(§3) All compounds were tested triplicate.
On the technique in general: ATP-based viability assays read luminescence as a measure of living cells.

Series [2] deals with NCI/ADR-RES, a multi drug resistant cell line over-expressing MDR-1. Description: Cytotoxicity (ATPLite cell growth inhibition), Example 1, MDR-1 over-expressing cells. In kind it is cell-based. The conditions noted are these: Homo sapiens, MDR1; NCI/ADR-RES cells (MDR-1 over-expressing), 72 hours exposure, ATPLite assay, mean ± standard deviation; read-out: IC50 (concentration that inhibited growth by 50%). As for the experimental part:
B. NCl/ADR-RES, a multi drug resistant cell line over-expressing MDR-1 was obtained from NCl, Frederick, Md. This cell line has previously been called MCF-7/ADR by NCl.
as §2, §3

In series [3] the test system is MCF-7, a human breast cancer cell line. Description: Cytotoxicity (ATPLite cell growth inhibition), Example 2, MCF-7 cells. The settings on record: MCF7a, 72 hours exposure, ATPLite assay, mean ± standard deviation, read-out: IC50 (concentration that inhibited growth by 50%). In kind it is cell-based. The procedure: as §1
(§4) All compounds were tested in triplicate.

Series [4] relates to MCF-7/MX, a multi drug resistant cell line over-expressing BCRP. Description: Cytotoxicity (ATPLite cell growth inhibition), Example 3, BCRP over-expressing cells. The conditions noted are these: for IC50: Homo sapiens, MCF7/MX, 72 h, read-out: IC50 (concentration that inhibited growth by 50%); for Difference in cytotoxic activity between normal (MCF-7) and BCRP over-expressing (MCF-7/MX) cell line: ratio of IC50 MCF-7/MX versus MCF-7.
Experimental: Methods: The tumor cells were plated at 5,000 cells/well in a 96 well tissue culture plate and grown for 24 hours at 37° C. The cells were then exposed to various concentrations of 5-chloro-N-[2-(4-chloro-naphtalen-1-yloxy)-5-trifluoromethyl-phenyl]-2-hydroxy-benzamide, Camptothecin or Epirubicin for 72 hours and the inhibition of cell growth due to exposure to the drug was determined using the ATPLite assay. Data are expressed as the concentration that inhibited growth by 50%.
Stock solutions of compounds dissolved in DMSO were used to prepare compound dilutions for activity determination. 5-chloro-N-[2-(4-chloro-naphtalen-1-yloxy)-5-trifluoromethyl-phenyl]-2-hydroxy-benzamide was tested at a final concentration of 100 μM, 33.3 μM, 11.1 μM, 3.7 μM, 1.23 μM, 0.4 μM and 0.13 μM for both cell lines. CPT-11 was tested at 1 μM, 0.33 μM, 0.1 μM, 0.04 μM, 0.012 μM, 0.004 μM and 0.001 μM in MCF-7 cells and at 10 μM, 3.3 μM, 1.1 μM, 0.37 μM, 0.12 μM, 0.04 μM and 0.013 μM in MCF-7/MX cells. Epirubicin was tested at 10 μM, 3.3 μM, 1.1 μM, 0.37 μM, 0.12 μM, 0.04 μM and 0.013 μM for MCF-7 cells and at 100 μM, 33.3 μM, 11.1 μM, 3.7 μM, 1.23 μM, 0.4 μM and 0.13 μM for MCF-7/MX cells. The final concentration of DMSO in all cases was adjusted to 0.2% v/v.
Both cell lines were cultured in RPMI-1640 supplemented with 10% fetal bovine serum, 2 mM Glutamax, 1 mM sodium pyruvate, 0.1 mM non-essential amino acids, 10 μg/ml recombinant human insulin and 10 mM Hepes. All cell lines were grown at 37° C. in a humidified 5% CO2 atmosphere.
For testing the effect of compounds on cell growth, exponentially growing cells were harvested by trypsinization and plated in fresh growth medium at 50,000 cells/ml, one hundred microlitres cell suspension per well, in a 96-well flat-bottomed microtiter plate (Corning, Costar 3595). Twenty-four hours later, culture medium was replaced with fresh growth medium and varying concentrations of test compound.
For both cell lines, cells were incubated with compound for three days and cellular viability was determined at the end of the incubation by measuring intracellular ATP with ATPLite assay system. All compounds were tested in triplicate.
Effect of compounds on cell viability was calculated by comparing the ATP levels of cells exposed to test compound with those of cells exposed to DMSO. A semi-log plot of relative ATP levels versus compound concentration was used to calculate the compound concentration required to inhibit growth by 50% (IC50). Data was analyzed by Prism software (GraphPad; San Diego, Calif.) by fitting it to a sigmoidal dose response curve. The IC50 values obtained for individual data sets were combined to obtain a mean IC50 and standard deviation of the mean.

Series [5] has as its system MCF-7/VP, a multi drug resistant cell line over-expressing MRP-1. Description: Cytotoxicity (ATPLite cell growth inhibition), Example 2, MRP-1 over-expressing cells. The series is classed as cell-based. The conditions noted are these: Homo sapiens, MCF7-VP; MCF-7/VP cells (MRP-1 over-expressing), 72 hours exposure, ATPLite assay, mean ± standard deviation; read-out: IC50 (concentration that inhibited growth by 50%).
From the text: Over-expression of the product of the ABCC1 gene encoding the multidrug resistance associated protein 1 confers resistance to a wide variety of agents including etoposide, methotrexate, cisplatins and anthracyclines. […] MCF-7/VP cells, a MCF-7 derivative selected for resistance to etoposide, over-express the MRP-1 protein (1).
B. MCF-7/VP, a multi drug resistant cell line over-expressing MRP-1 was obtained from Dr. Erasmus Schneider, Wadsworth Center, NYS Dept. of Health, Albany, N.Y. 12237.
as §4

Series [6] concerns MCF-7, a human breast cancer cell line. Description: Cytotoxicity (ATPLite cell growth inhibition), Example 3, MCF-7 cells. In kind it is cell-based. The conditions noted are these: MCF7a, 72 hours exposure, ATPLite assay, mean ± standard deviation, read-out: IC50 (concentration that inhibited growth by 50%). The procedure: as §1, §4
Another series in a line: Oral bioavailability. In kind it is in vivo. The conditions noted are these: oral administration.

Entries after “also recorded” stand apart in the source; their conditions may differ.

With `CC(=O)O[C@@]12CO[C@@H]1C[C@H](O)[C@@]1(C)C(=O)[C@H](O)C3=C(C)[C@@H](OC(=O)[C@H](O)[C@@H](NC(=O)OC(C)(C)C)c4ccccc4)C[C@@](O)([C@@H](OC(=O)c4ccccc4)[C@H]21)C3(C)C` [Taxotere ®], the IC50 in series [1] turned out to be 0.5 nM; in series [2], 428 nM.

With `COc1cccc2c1C(=O)c1c(O)c3c(c(O)c1C2=O)C[C@@](O)(C(=O)CO)C[C@@H]3O[C@H]1C[C@H](N)[C@@H](O)[C@H](C)O1` [Epirubicin], the IC50 in series [3] amounted to 150 nM; in series [4], 1120 nM; in series [5], 958 nM; in series [6], 150 nM. Besides, the “Difference in cytotoxic activity between normal (MCF-7) and BCRP over-expressing (MCF-7/MX) cell line” value (“Difference” below) in series [4] is “one-seventh”.

Consider `CC[C@@]1(O)C(=O)OCc2c1cc1n(c2=O)Cc2cc3ccccc3nc2-1` [Camptothecin ®], for which the IC50 is 174 nM in series [4] and 21.9 nM in series [6]. Also, the “Difference” value in series [4] is recorded as “one-eighth”.

Turning to `O=C(Nc1cc(C(F)(F)F)ccc1Oc1ccc(Cl)c2ccccc12)c1cc(Cl)ccc1O` [5-chloro-N-[2-(4-chloro-naphtalen-1-yloxy)-5-trifluoromethyl-phenyl]-2-hydroxy-benzamide], the IC50 in series [1] came to 739 nM; in series [3], 592 nM; in series [4], 1480 nM; in series [5], 800 nM; in series [2], 754 nM; in series [6] it was 739 nM. For the same molecule, the “Bioavailability when administered orally” value in “Oral bioavailability” is recorded as “low bioavailability”. The “Difference” value in series [4] is reported as “two-fold; also recorded: twofold”.

On to `CC[C@]1(O)C[C@@H]2CN(CCc3c([nH]c4ccccc34)[C@@](C(=O)OC)(c3cc4c(cc3OC)N(C)[C@H]3[C@@](O)(C(=O)OC)[C@H](OC(C)=O)[C@]5(CC)C=CCN6CC[C@]43[C@@H]65)C2)C1` [Vinblastine], for which the IC50 was 0.6 nM in series [1] and 558 nM in series [2].
